Data taken from PubChem BioAssay (NCI).
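Five compound concentrations were applied to cells in 96-well plates for 48 hours; endpoints were derived by simple linear interpolation of the resulting dose-response curve. The concentration for 50% growth inhibition is given as GI50. TGI: concentration producing complete growth inhibition.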

How the values were obtained:
Experiment in all cases: DTP human tumour cell line panel, 48 h
MOLT-4 leukemia = tested on: MOLT-4 leukemia
OVCAR-3 ovarian = tested on: OVCAR-3 ovarian
ACHN renal = tested on: ACHN renal
COLO 205 colon = tested on: COLO 205 colon
RPMI-8226 leukemia = tested on: RPMI-8226 leukemia
OVCAR-4 ovarian = tested on: OVCAR-4 ovarian
SF-295 CNS = tested on: SF-295 CNS
SK-MEL-28 melanoma = tested on: SK-MEL-28 melanoma
LOX IMVI melanoma = tested on: LOX IMVI melanoma
OVCAR-5 ovarian = tested on: OVCAR-5 ovarian

Structure (SMILES)	TGI (MOLT-4 leukemia)	GI50 (OVCAR-3 ovarian)	TGI (OVCAR-3 ovarian)	GI50 (ACHN renal)	TGI (ACHN renal)	GI50 (COLO 205 colon)	TGI (COLO 205 colon)	GI50 (RPMI-8226 leukemia)	TGI (RPMI-8226 leukemia)	GI50 (OVCAR-4 ovarian)	TGI (OVCAR-4 ovarian)	GI50 (SF-295 CNS)	TGI (SF-295 CNS)	GI50 (SK-MEL-28 melanoma)	TGI (SK-MEL-28 melanoma)	GI50 (LOX IMVI melanoma)	TGI (LOX IMVI melanoma)	GI50 (OVCAR-5 ovarian)	TGI (OVCAR-5 ovarian)	GI50 (MOLT-4 leukemia)
O=C(Cc1csc2nc(-c3ccc(Br)cc3)cn12)N/N=C/c1ccc(Cl)cc1Cl	26.3 µM	34.9 µM	> 100 µM	22.6 µM	53.6 µM	75 µM	> 100 µM	80.2 µM	> 100 µM	37.3 µM	> 100 µM	34.7 µM	> 100 µM	> 100 µM	> 100 µM	21.2 µM	48.6 µM	28.6 µM	67.3 µM	
COc1ccc(-c2nnc(SCC(=O)Nc3ccc(C(=O)/C=C/c4cc(OC)c(OC)c(OC)c4)cc3)n2-c2ccccc2)cc1OC	> 10 µM	3.18 µM	> 10 µM	5.69 µM	> 10 µM	> 10 µM	> 10 µM	0.387 µM	5.73 µM	> 10 µM	> 10 µM	> 10 µM	> 10 µM	> 10 µM	> 10 µM	1.74 µM	4.87 µM	> 10 µM	> 10 µM	9.46 µM
CCOc1ccc(NCC2CC/C(=C\c3ccc(Cl)cc3)C2=O)cc1 (configuration not stated)	69.8 µM		> 51.9 µM		> 60.3 µM		> 52.5 µM		10.2 µM		> 75.3 µM		> 100 µM		> 100 µM		35.4 µM		> 100 µM	
O=C(NO)c1ccc(Cn2c(=O)n(-c3ccccc3)c(=O)c3ccccc32)cc1	> 100 µM	1.58 µM	7.87 µM	1.67 µM	6.37 µM	0.356 µM	1.39 µM	0.689 µM	93.5 µM	1.56 µM	18.7 µM	1.38 µM	2.98 µM	0.519 µM	2.93 µM	1.26 µM	2.62 µM	1.08 µM	5.28 µM	0.848 µM
CCC(C)c1cccc(C)c1NC(=O)C(=O)Cc1nc2ccccc2s1 (configuration not stated)	> 100 µM		> 100 µM		> 100 µM		> 100 µM		> 100 µM		> 100 µM		> 100 µM		> 100 µM		> 100 µM		> 100 µM	
O=C1CCCC(O)=C1SC1=C(O)CCCC1=O	> 100 µM		> 100 µM				> 100 µM		> 100 µM		> 100 µM		> 100 µM		> 100 µM		> 100 µM		> 100 µM	
O=C1CCNC(=O)NC1	56.6 µM		> 100 µM		> 100 µM		> 100 µM		> 100 µM		> 100 µM		> 100 µM		> 100 µM		> 100 µM		> 100 µM	
COC1C(CO)OC(n2c3c(Cl)cccc3c3c4c(c5c6cccc(Cl)c6[nH]c5c32)C(=O)NC4=O)C(O)C1O (configuration not stated)	> 100 µM		6.67 µM		1.47 µM		61.4 µM		> 18.7 µM		18.3 µM		4.32 µM		> 73.5 µM		0.289 µM		> 41.9 µM	
COc1cnc2c(c1)C(=O)c1c-2n(CCCNCCN2CCOCC2)c(=O)c2cc([N+](=O)[O-])ccc12	0.269 µM	0.315 µM	1.71 µM	0.0365 µM	0.201 µM	0.297 µM	3.07 µM	0.171 µM	1.55 µM	0.334 µM	3.44 µM	0.0735 µM	0.964 µM	1.13 µM	14.3 µM	0.0413 µM	0.216 µM	0.448 µM	3.87 µM	0.0335 µM
CN(C)c1ccc2cc3ccc(N(C)C)cc3nc2c1			13.4 µM		3.67 µM		22.8 µM		4.09 µM		3.37 µM		15.2 µM		16.3 µM		3.63 µM		9.82 µM	
C[C@@H](Oc1cc(-n2cnc3ccc(OCC4CCN(C)CC4)cc32)sc1C(N)=O)c1ccccc1Cl	3.13 µM	0.0577 µM	2.97 µM	0.368 µM	5.04 µM	0.0165 µM	0.631 µM	0.094 µM	4.61 µM	0.477 µM	4.81 µM	0.0853 µM	3.31 µM	0.165 µM	4.62 µM	0.0926 µM	3.6 µM	0.113 µM	4.19 µM	0.0585 µM
CN(C)c1ccc(Nc2c3ccccc3nc3cc(NC(=O)CCN4CCCC4)ccc23)cc1	1.07 µM	0.81 µM	2.25 µM	0.321 µM	1.12 µM	0.309 µM	1.76 µM	0.185 µM	0.711 µM	0.57 µM	2.16 µM	0.362 µM	1.51 µM	1.46 µM	2.85 µM	0.21 µM	1.46 µM	0.89 µM	2.74 µM	0.042 µM
